{"source": "patent US10272056B2", "about": "“Treatment for mitochondrial diseases” (The George Washington University a Congressionally …, priority 2015, dated 2019)", "key": {"[1]": {"system": "E17.5 hippocampal neurons", "assay": "Mitochondrial mass in neurons (mito-GFP, quantitative immunohistochemistry COXVα/tubulin)", "assay_type": "cell-based", "conditions": "NaBt-treated E17.5 neurons; control 7%", "excerpt": "FIG. 7A-7F show images from microscopy and graphs showing NaBt increases mitochondrial mass. (A) Live cell confocal microscopy of E17.5 hippocampal neurons; high magnification in inset; scale bar=5 (B) Quantitative analysis of the mitochondrial biomass in E17.5 neurons using an anti-CoxVα antibody; *p<0.001. (C) Live cell confocal microscopy of PC12-ND6 cells; high magnification in inset; scale bar=5 (D) Flow cytometric analysis of mitochondrial mass; *p<0.001. (E) Confocal microscopy of E17.5 brains from E12.5 pregnant dams treated with PBS (sham) or NaBt; scale bar=20 (F) Quantitative analysis of mitochondrial mass; *p<0.001.\nExperimental approaches. Five distinct molecular tools were used to investigate mitochondrial biogenesis: 1) the mitochondrial-specific dyes, MitoTracker® Green (MTG) and MitoTracker® Red (MTR); 2) the mito-GFP or mito-dsRed vector to fluorescently label mitochondria; 3) antibodies against mtDNA, COXVα, or SOD2; 4) the fluorescent PicoGreen® dye labeling mtDNA; and 5) quantitative PCR to determine mtDNA copy number.\nThe effect of NaBt was investigated in embryonic neuronal progenitor cells, E17.5 hippocampal neurons, which were transfected with the mito-GFP vector and then exposed to various concentrations of NaBt. […] Therefore, all subsequent treatment of E17.5 hippocampal neurons with NaBt was performed in the presence of 2 mM. […]"}, "Tfam": {"system": "Tfam", "assay": "Quantitative immunoblot analysis of Tfam", "assay_type": "cell-based", "conditions": "NaBt treatment, PC12-ND6", "excerpt": "FIG. 11A-11D are images from microscopy and graphs showing NaBt promotes mtDNA replication via the NRF-1/Tfam axis. (A) Confocal analysis of mtDNA foci; scale bar=5 (B) Quantitative analysis of mtDNA copy number by PCR; *p<0.001. (C, D) Quantitative immunoblot analysis of NRF-1 and Tfam; *p<0.001.\nNaBt enhances mtDNA replication via the PGC1α-mediated NRF-1/Tfam axis. It was investigated whether NaBt enhanced mtDNA replication using the PicoGreen® dye to label mtDNA. PC12-ND6 cells were transfected with the mito-dsRed vector prior to NaBt treatment followed by PicoGreen® staining. […] To corroborate enhanced mitochondrial biogenesis, two key target genes of PGC1α were examined, the NRF-1 transcription factor and its direct target gene Tfam, both essential for mitochondrial biogenesis. […] The findings confirm the NaBt-mediated modulation of mitochondrial biogenesis and mtDNA replication in neuronal cells."}, "PC12-ND6 cells [2]": {"system": "PC12-ND6 cells", "assay": "Neurite outgrowth with sub-optimal NGF (10 ng/ml)", "assay_type": "cell-based", "protocol": "FIG. 13A-13E are images from microscopy and graphs showing that the timing of NaBt treatment is critical for enhancing neuronal differentiation of PC12-ND6 cells upon sub-optimal neurotrophic cues. (A) Confocal micrographs of PC12-ND6 cells treated with dbcAMP alone or with NaBt (5 mM) in a simultaneous or sequential manner. Scale bar represents 5 μm. (B) Graph of neurite length. Mean±SEM (n=50 for each condition; compared to control (no NaBt) *p=0.0001 and **p=0.0009). (C) Confocal micrographs of PC12-ND6 cells treated with sub-optimal NGF concentration (10 ng/ml) alone or first NaBt (5 mM) in a simultaneous or sequential manner. Scale bar represents 10 μm. (D) Graph of average total neurite length. Mean±SEM (n=50 for each condition; compared to control *p=0.0001). (E) Graph of the frequency of total neurite length below and above 90 μm.\nNaBt-mediated modulation of the neuronal potential of PC12-ND6 cells in the context of sub-optimal NGF concentration (10 ng/ml) was further investigated. Transfected PC12-ND6 cells were first treated with NaBt (5 mM) for three days prior to NGF exposure (10 ng/ml). A time course analysis of neurite outgrowth was conducted during the first two days of NGF exposure by live-cell confocal microscopy. […] Such trend of neurite extension was maintained at day 2 of NGF exposure with NaBt-pre-treated or co-treated PC12-ND6 cells. Whether NaBt added concomitantly with NGF (10 ng/ml) could mediate increased neuritogenesis was also assessed."}, "PC12-ND6 cells [3]": {"system": "PC12-ND6 cells", "assay": "NGF (100 ng/ml)-mediated neurite outgrowth after chloramphenicol", "assay_type": "cell-based", "excerpt": "FIG. 15A-15C are images from microscopy and a graph showing that Pre-treatment of PC12-ND6 cells negates the inhibitory effect of chloramphenicol on NGF-mediated neuronal differentiation. (A) Confocal micrographs of untreated and Cm-treated PC12-ND6 cells transfected with the vector mito-GFP and exposed to NGF. Scale bar represents 20 μm. (B) Confocal micrographs of NaBt pre-treated PC12-ND6 cells transfected with the vector mito-GFP and exposed to chloramphenicol prior to NGF treatment. Scale bar represents 20 μm. (C) Graph of average total neurite length. Mean±SEM (n=50 cells; compared to untreated PC12-ND6 cells *p=0.0001; compared to non-NaBt-treated PC12-ND6 cells with corresponding Cm concentration **p=0.0001).\nBased on the results that NaBt endows PC12-ND6 cells with increased mitochondrial mass through biogenesis, resulting in accelerated neuronal differentiation, it was examined whether exposure to NaBt for three days could confer protection to chloramphenicol-mediated inhibition of neuronal differentiation upon NGF signaling."}, "MELAS fibroblasts": {"system": "MELAS fibroblasts", "assay": "Relative cellular ATP levels (magnesium green dye)", "assay_type": "cell-based, human", "protocol": "FIG. 19 is a graph showing that NaBt augments the relative cellular ATP levels in MELAS fibroblasts. The relative cellular ATP content was examined by a fluorescent probe, magnesium green (Mg Gr). MELAS fibroblasts were treated for 6 and 24 hours with NaBt (2.5 m M) before being labeled with Mg-Gr.\nTo assess relative cellular ATP levels in live MELAS fibroblasts, the fluorescent magnesium green (Mg-Gr) dye, which has been successfully employed in live patient fibroblasts, was used. Fluorescence emission from the Mg-Gr dye is directly proportional to the concentration of intracellular free Mg2+ concentration. Since the affinity of Mg2+ for ATP is about ten times higher than its affinity for ADP or AMP, the fluorescence intensity is inversely correlated with the intracellular levels of ATP. A time course exposure to NaBt ([…]) was performed using MELAS fibroblasts from one patient that has been comprehensively evaluated in terms of mitochondrial mass, mitochondrial membrane potential, and mitochondrial dynamics and networking (FIGS. 17 and 18). […] Thus, butyrates augment the functional mitochondrial mass in dermal MELAS fibroblasts, thereby reversing their deficits in mitochondrial mass and bioenergetics capacity."}}}
{"smiles": "CCCC(=O)[O-].[Na+]", "note": "[NaBt, sodium butyrate]", "values": [{"measurement": "mitochondria as percent of the cell volume", "setting": "[1]", "result": 18, "unit": "%"}, {"measurement": "Tfam expression", "setting": "Tfam", "result": "induced Tfam expression on day 2"}, {"measurement": "neurite outgrowth, NaBt and NGF administered simultaneously", "setting": "PC12-ND6 cells [2]; NGF 10 ng/ml", "result": "No synergistic effect"}, {"measurement": "average total neurite length", "setting": "PC12-ND6 cells [2]; NaBt 5 mM three days pre-treatment, 24 hours NGF 10 ng/ml, control 60 μm", "result": 168, "unit": "μm"}, {"measurement": "percent of neurites longer than 90 μm", "setting": "PC12-ND6 cells [2]; NaBt pre-treated, NGF 10 ng/ml, control 16%", "result": 79, "unit": "%"}, {"measurement": "mitochondrial density in processes", "setting": "PC12-ND6 cells [3]; NaBt pre-treated, 60 μM chloramphenicol", "result": "retained a high mitochondrial density"}, {"measurement": "total neurite length with NaBt pre-treatment", "setting": "PC12-ND6 cells [3]; NaBt three days, highest concentration of chloramphenicol, NGF", "result": "remained unaffected"}, {"measurement": "relative cellular ATP levels", "setting": "MELAS fibroblasts; 24 hours NaBt 2.5 mM", "result": "became more accentuated"}, {"measurement": "relative cellular ATP levels", "setting": "MELAS fibroblasts; first 24 hours of NaBt (2.5 mM) treatment", "result": "steady increase in relative cellular ATP levels"}, {"measurement": "relative cellular ATP levels", "setting": "MELAS fibroblasts; six hours NaBt 2.5 mM", "result": "increase in relative cellular ATP levels"}]}
